# Data reported in patent publication US8344153B2, “Inhibitors of phosphatidylinositol 3-kinase” (Vertex Pharmaceuticals Incorporated, priority 2009, dated 2013).
# Molecular target: PI3K-γ (Homo sapiens, UniProt P48736)
# Assay: PI3K Inhibition Assay (33P-ATP, PI(4,5)P2 substrate, filter plate scintillation counting)
# Type: biochemical
# Conditions: competitive tight binding Ki fit; 3 μM ATP, 30 μM PI(4,5)P2, 2 nM final enzyme, 30 min at 25° C.; read-out: Ki for the inhibition of PI3Ky
# Procedure: One test well also contained 1.5 μL of DMSO with no compound. […] To initiate the reaction, 50 μL of ATP Mix [20 mM MgCl2, 6 μM ATP (100 μCi/μmole ^33P-ATP)] was added each well, followed by incubating the wells for 30 min. at 25° C. Final concentrations in each well were 50 mM HEPES 7.5, 10 mM MgCl2, 25 mM NaCl, 5 mM DTT, 0.1 mg/mL BSA, 30 μM PI(4,5)P2, 3 μM ATP, and the PI3K isoform of interest (see Table 3). Final compound concentrations in each well ranged from 10 μM to 1 nM.
# After incubation, the reactions in each well were quenched by addition of 50 μL of stop solution [30% TCA/Water, 10 mM ATP]. […] 50 μL of scintillation fluid was added to each well and the plate read on a Perkin-Elmer TopCount™ NXT liquid scintillation counter to obtain ^33P-counts representing inhibition values.
# PI3K-γ, sequence (P48736 whole entry, species assumed): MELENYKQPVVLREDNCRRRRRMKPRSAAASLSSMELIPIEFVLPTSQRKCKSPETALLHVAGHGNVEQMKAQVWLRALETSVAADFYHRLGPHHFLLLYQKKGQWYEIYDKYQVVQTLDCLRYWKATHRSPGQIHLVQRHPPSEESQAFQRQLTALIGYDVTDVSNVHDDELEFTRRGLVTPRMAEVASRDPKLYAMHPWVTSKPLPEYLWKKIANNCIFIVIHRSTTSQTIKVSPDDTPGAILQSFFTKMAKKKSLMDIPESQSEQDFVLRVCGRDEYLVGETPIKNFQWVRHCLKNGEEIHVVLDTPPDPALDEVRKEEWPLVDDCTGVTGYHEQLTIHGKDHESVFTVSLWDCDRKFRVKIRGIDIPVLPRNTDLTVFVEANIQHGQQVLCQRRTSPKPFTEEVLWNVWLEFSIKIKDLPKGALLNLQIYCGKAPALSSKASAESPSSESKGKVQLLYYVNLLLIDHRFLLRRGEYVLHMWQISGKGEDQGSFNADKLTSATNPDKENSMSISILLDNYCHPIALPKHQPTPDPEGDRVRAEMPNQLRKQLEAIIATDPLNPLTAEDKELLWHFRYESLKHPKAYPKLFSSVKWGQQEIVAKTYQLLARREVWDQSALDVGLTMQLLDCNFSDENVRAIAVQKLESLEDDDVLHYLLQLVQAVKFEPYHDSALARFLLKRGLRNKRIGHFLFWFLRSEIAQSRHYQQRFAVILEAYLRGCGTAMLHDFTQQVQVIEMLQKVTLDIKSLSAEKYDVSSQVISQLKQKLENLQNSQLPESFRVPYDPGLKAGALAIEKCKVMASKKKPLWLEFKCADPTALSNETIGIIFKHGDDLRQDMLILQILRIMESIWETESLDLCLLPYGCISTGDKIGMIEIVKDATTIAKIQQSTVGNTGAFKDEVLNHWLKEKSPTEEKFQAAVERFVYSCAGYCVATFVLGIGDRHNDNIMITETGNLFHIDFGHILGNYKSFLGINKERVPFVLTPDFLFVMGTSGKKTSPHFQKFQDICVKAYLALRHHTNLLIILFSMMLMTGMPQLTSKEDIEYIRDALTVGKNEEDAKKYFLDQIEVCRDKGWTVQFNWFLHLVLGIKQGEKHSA
compound,measurement,value
CCOCCNC(=O)Nc1nc(C)c(C#Cc2ccncc2)s1 [Compound 26],Ki,< 50 nM
